Results published in patent publication US8889874B2, “Imidazolone-chalcone derivatives as potential anticancer agent and process for the preparation thereof” (Council of Scientific and Industrial Research, priority 2010, dated 2014).
Read-outs that look alike come from different tables or passages of the source.

Legend:
Assay type in all cases: cell-based, human
[1] = test system: U251 (CNS); experiment: NCI anticancer screen, SRB assay, 48 h; settings: Homo sapiens
Protocol: (§1) Some of biological activity studies were carried out at the National Cancer Institute (NCI), Maryland, USA.
(§2) The compounds were evaluated for anticancer activity against fifty three human cancer cells derived from nine cancer types (leukemia cell line, non-small-cell lung cell line, colon cell line, CNS cell line, melanoma cell line, ovarian cell line, prostate cell line, and breast cancer cell line) as shown in Table 1. For each compound, dose response curves for each cell line were measured at a minimum of five concentrations at 10 fold dilutions. A protocol of 48 h continuous drug exposure was used and a sulforhodamine B (SRB) protein assay was used to estimate cell viability or growth.

[2] = test system: LOX IMVI (melanoma); experiment: NCI anticancer screen, SRB assay, 48 h; settings: Homo sapiens
Protocol: as §1, §2

[3] = test system: HOP-92 (non-small cell lung); experiment: NCI anticancer screen, SRB assay, 48 h; settings: Homo sapiens
Protocol: as §1, §2

[4] = test system: SW-620 (colon); experiment: NCI anticancer screen, SRB assay, 48 h; settings: Homo sapiens
Protocol: as §1, §2

[5] = test system: BT-549 (breast); experiment: NCI anticancer screen, SRB assay, 48 h; settings: Homo sapiens
Protocol: as §1, §2

[6] = test system: 786-0 (renal); experiment: NCI anticancer screen, SRB assay, 48 h; settings: Homo sapiens
Protocol: as §1, §2

[7] = test system: SF-295 (CNS); experiment: NCI anticancer screen, SRB assay, 48 h; settings: Homo sapiens
Protocol: as §1, §2

[8] = test system: A498 (renal); experiment: NCI anticancer screen, SRB assay, 48 h; settings: Homo sapiens
Protocol: as §1, §2

[9] = test system: MCF7 (breast); experiment: NCI anticancer screen, SRB assay, 48 h; settings: Homo sapiens
Protocol: as §1, §2

[10] = test system: HCC-2998 (colon); experiment: NCI anticancer screen, SRB assay, 48 h; settings: Homo sapiens
Protocol: as §1, §2

[11] = test system: K-562 (leukemia cell line); experiment: NCI anticancer screen, SRB assay, 48 h; settings: Homo sapiens
Protocol: as §1, §2

[12] = test system: NCI-H460 (non-small cell lung); experiment: NCI anticancer screen, SRB assay, 48 h; settings: Homo sapiens
Protocol: as §1, §2

[13] = test system: OVCAR-5 (ovarian); experiment: NCI anticancer screen, SRB assay, 48 h; settings: Homo sapiens
Protocol: as §1, §2

[14] = test system: MDA-MB-231/ATCC (breast); experiment: NCI anticancer screen, SRB assay, 48 h; settings: Homo sapiens
Protocol: as §1, §2

[15] = test system: SK-MEL-5 (melanoma); experiment: NCI anticancer screen, SRB assay, 48 h; settings: Homo sapiens
Protocol: as §1, §2

[16] = test system: PC-3 (prostate); experiment: NCI anticancer screen, SRB assay, 48 h; settings: Homo sapiens
Protocol: as §1, §2

[17] = test system: SF-539 (CNS); experiment: NCI anticancer screen, SRB assay, 48 h; settings: Homo sapiens
Protocol: as §1, §2

[18] = test system: SF-268 (CNS); experiment: NCI anticancer screen, SRB assay, 48 h; settings: Homo sapiens
Protocol: as §1, §2

[19] = test system: SN12C (renal); experiment: NCI anticancer screen, SRB assay, 48 h; settings: Homo sapiens, SN12C
Protocol: as §1, §2

[20] = test system: HS 578T (breast); experiment: NCI anticancer screen, SRB assay, 48 h; settings: Homo sapiens
Protocol: as §1, §2

[21] = test system: MDA-MB-435 (melanoma); experiment: NCI anticancer screen, SRB assay, 48 h; settings: Homo sapiens
Protocol: as §1, §2

[22] = test system: HCT-15 (colon); experiment: NCI anticancer screen, SRB assay, 48 h; settings: Homo sapiens
Protocol: as §1, §2

[23] = test system: Colon cancer cell lines; experiment: NCI anticancer screen, SRB assay, panel summary; settings: for GI50: Homo sapiens
Protocol: as §1, §2

[24] = test system: Melanoma cancer cell lines; experiment: NCI anticancer screen, SRB assay, panel summary; settings: for GI50: Homo sapiens
Protocol: as §1, §2

[25] = test system: Non-small cell lung cancer cell lines; experiment: NCI anticancer screen, SRB assay, panel summary; settings: Homo sapiens
Protocol: as §1, §2

[26] = test system: Leukemia cancer cell lines; experiment: NCI anticancer screen, SRB assay, panel summary; settings: Homo sapiens
Protocol: as §1, §2

[27] = test system: Breast cancer cell lines; experiment: NCI anticancer screen, SRB assay, panel summary; settings: Homo sapiens
Protocol: as §1, §2

[28] = test system: Renal cancer cell lines; experiment: NCI anticancer screen, SRB assay, panel summary; settings: Homo sapiens, Renal panel
Protocol: as §1, §2

[29] = test system: CNS cancer cell lines; experiment: NCI anticancer screen, SRB assay, panel summary; settings: for GI50: Homo sapiens
Protocol: as §1, §2

[30] = test system: Prostate cancer cell lines; experiment: NCI anticancer screen, SRB assay, panel summary
Protocol: as §1, §2

[31] = test system: Ovarian cancer cell lines; experiment: NCI anticancer screen, SRB assay, panel summary; settings: Homo sapiens
Protocol: as §1, §2

[32] = 48 h exposure, SRB, read-out: GI50
[33] = read-out: pGI50 (-log of molar concentration causing 50% inhibition of net cell growth) (converted)

`O=C(/C=C/c1cccc(O)c1)c1cccc(-n2cc(-c3ccccc3)[nH]c2=O)c1` [4a, 1-3-[(E)-3-(3-hydroxyphenyl)-2-propenoyl]phenyl-4-phenyl-2,3-dihydro-1H-2-imidazolone] gave a GI50 ([1]; U-251, 48 h exposure, SRB, read-out: GI50) of 1.61 µM, a GI50 ([1]; U-251, read-out: pGI50 (-log of molar concentration causing 50% inhibition of net cell growth) (converted)) of 1.62 µM and a GI50 [2, 32] of 1.85 µM. For the same compound, the GI50 [2, 33] was 1.86 µM, the GI50 [3, 32] was 5.04 µM and the GI50 [3, 33] was 5.01 µM. The GI50 [4, 32] was 2.41 µM, the GI50 [4, 33] was 2.4 µM and the GI50 [5, 32] was 9.32 µM. The GI50 [5, 33] was 9.33 µM, the GI50 [6, 32] was 2.98 µM and the GI50 [6, 33] was 2.95 µM. The GI50 [7, 32] was 18.2 µM, the GI50 [7, 33] was 18.2 µM and the GI50 [8, 32] was 14.3 µM. It also gave a GI50 [8, 33] of 14.5 µM, a GI50 [9, 32] of 2.47 µM and a GI50 [9, 33] of 2.45 µM. The GI50 [10, 32] was 4.09 µM, the GI50 [10, 33] was 4.07 µM and the GI50 ([11]; K562, 48 h exposure, SRB, read-out: GI50) was 3.35 µM. The GI50 ([11]; K562, read-out: pGI50 (-log of molar concentration causing 50% inhibition of net cell growth) (converted)) was 3.39 µM, the GI50 [12, 32] was 2.49 µM and the GI50 [12, 33] was 2.51 µM. For the same compound, the GI50 [13, 32] was 5.44 µM, the GI50 [13, 33] was 5.5 µM and the GI50 [14, 32] was 3.86 µM. It also gave a GI50 [14, 33] of 3.89 µM, a GI50 [15, 32] of 3.18 µM and a GI50 [15, 33] of 3.16 µM. For the same compound, the GI50 ([16]; PC-3, read-out: pGI50 (-log of molar concentration causing 50% inhibition of net cell growth) (converted)) was 2.82 µM, the GI50 ([16]; one prostate cancer cell line (PC-3), exposure at least 48 hrs, read-out: GI50) was 2.82 µM and the GI50 [17, 32] was 1.98 µM. The GI50 [17, 33] was 2 µM, the GI50 [18, 32] was 4.53 µM and the GI50 [18, 33] was 4.57 µM. For the same compound, the GI50 ([19]; SN 12C, read-out: pGI50 (-log of molar concentration causing 50% inhibition of net cell growth) (converted)) was 3.16 µM, the GI50 [19, 32] was 3.14 µM and the GI50 [20, 32] was 6.14 µM. It also gave a GI50 [20, 33] of 6.17 µM, a GI50 [21, 32] of 3.12 µM and a GI50 [21, 33] of 3.09 µM. The GI50 [22, 32] was 3.1 µM, the GI50 [22, 33] was 3.09 µM and the “mean graph midpoint (MG_MID) of Log10 LC50” value ([23]; Colon panel, log of concentration leading to 50% net cell death) was 4.55. The GI50 ([23]; Colon panel, log of concentration in mol/L causing 50% inhibition of net cell growth, read-out: mean graph midpoint (MG_MID) of Log10 GI50 (converted)) was 2.75 µM, the GI50 ([23]; seven colon cancer cell lines, exposure at least 48 hrs, read-out: GI50, range over the panel) was 1.83 to 4.09 µM and the GI50 ([24]; Melanoma panel, log of concentration in mol/L causing 50% inhibition of net cell growth, read-out: mean graph midpoint (MG_MID) of Log10 GI50 (converted)) was 4.47 µM. The GI50 ([24]; nine melanoma cancer cell lines, exposure at least 48 hrs, read-out: GI50, range over the panel) was 1.85 to 8.26 µM, the “mean graph midpoint (MG_MID) of Log10 LC50” value ([24]; Melanoma panel, log of concentration leading to 50% net cell death) was 4.35 and the GI50 ([25]; Non-small cell lung panel, log of concentration in mol/L causing 50% inhibition of net cell growth, read-out: mean graph midpoint (MG_MID) of Log10 GI50 (converted)) was 6.92 µM. For the same compound, the GI50 ([25]; nine non-small cell lung cancer cell lines, exposure at least 48 hrs, read-out: GI50, range over the panel) was 2.49 to 24.8 µM, the GI50 ([26]; Leukemia panel, log of concentration in mol/L causing 50% inhibition of net cell growth, read-out: mean graph midpoint (MG_MID) of Log10 GI50 (converted)) was 2.29 µM and the LC50 ([26]; Leukemia panel, log of concentration leading to 50% net cell death, read-out: mean graph midpoint (MG_MID) of Log10 LC50 (converted)) was no less than 100 µM. For the same compound, the GI50 ([26]; two leukemia cancer cell lines (RPMI-8226 and K-562), exposure at least 48 hrs, read-out: GI50, range over the panel) was 2.12 to 3.35 µM, the GI50 ([27]; Breast panel, log of concentration in mol/L causing 50% inhibition of net cell growth, read-out: mean graph midpoint (MG_MID) of Log10 GI50 (converted)) was 4.79 µM and the LC50 ([27]; Breast panel, log of concentration leading to 50% net cell death, read-out: mean graph midpoint (MG_MID) of Log10 LC50 (converted)) was 72.4 µM. It also gave a GI50 ([27]; five breast cancer cell lines, exposure at least 48 hrs, read-out: GI50, range over the panel) of 2.47 to 9.32 µM, a GI50 ([28]; log of concentration in mol/L causing 50% inhibition of net cell growth, read-out: mean graph midpoint (MG_MID) of Log10 GI50 (converted)) of 4.17 µM and an LC50 ([28]; log of concentration leading to 50% net cell death, read-out: mean graph midpoint (MG_MID) of Log10 LC50 (converted)) of 33.9 µM. For the same compound, the “mean graph midpoint (MG_MID) of Log10 LC50” value ([29]; CNS panel, log of concentration leading to 50% net cell death) was 4.60, the GI50 ([29]; CNS panel, log of concentration in mol/L causing 50% inhibition of net cell growth, read-out: mean graph midpoint (MG_MID) of Log10 GI50 (converted)) was 5.75 µM and the GI50 ([29]; six CNS cancer cell lines, exposure at least 48 hrs, read-out: GI50, range over the panel) was 1.61 to 18.2 µM. The GI50 ([30]; Homo sapiens, log of concentration in mol/L causing 50% inhibition of net cell growth, read-out: mean graph midpoint (MG_MID) of Log10 GI50 (converted)) was 2.82 µM, the LC50 ([30]; Homo sapiens, log of concentration leading to 50% net cell death, read-out: mean graph midpoint (MG_MID) of Log10 LC50 (converted)) was 49 µM and the “mean graph midpoint (MG_MID) of Log10 TGI” value ([30]; log of concentration resulting in total inhibition of net cell growth) was 4.90. It also gave a GI50 ([31]; Ovarian panel, log of concentration in mol/L causing 50% inhibition of net cell growth, read-out: mean graph midpoint (MG_MID) of Log10 GI50 (converted)) of 4.68 µM, an LC50 ([31]; Ovarian panel, log of concentration leading to 50% net cell death, read-out: mean graph midpoint (MG_MID) of Log10 LC50 (converted)) of 46.8 µM and a GI50 ([31]; six ovarian cancer cell lines, exposure at least 48 hrs, read-out: GI50, range over the panel) of 2.8 to 11.1 µM.
